Measurements taken from PubChem BioAssay AID264 (DTP/NCI, 2004).
Where “and” joins values, the source holds several entries; their conditions need not be identical. Equal entries are not always repeated. Inconclusive results are not listed.

System: nude mice, LX-1 lung xenograft intrarenal, tumor weight T/C
Experiment: NCI In Vivo Anticancer Drug Screen. Data for tumor model Human Lung LX-1 Xenograft (intrarenal inoculation) in NU/NU Swiss (nude) mice
Settings: endpoint: mean tumor weight change, higher = larger tumour
In short: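 In vivo, transplantable tumor; compound vs vehicle arms; tumor size measured; value = T/C.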

[1] = dose: 25.0 mg/kg/injection, schedule: Q04DX003 (sc), vehicle: Klucel (hydroxypropylcellulose) (HPC)
[2] = dose: 50.0 mg/kg/injection, schedule: Q04DX003 (sc), vehicle: Klucel (hydroxypropylcellulose) (HPC)
[3] = dose: 100.0 mg/kg/injection, schedule: Q04DX003 (sc), vehicle: Klucel (hydroxypropylcellulose) (HPC)
[4] = dose: 75.0 mg/kg/injection, schedule: Q04DX003 (sc), vehicle: saline with Tween-80
[5] = dose: 150.0 mg/kg/injection, schedule: Q04DX003 (sc), vehicle: saline with Tween-80
[6] = dose: 50.0 mg/kg/injection, schedule: Q01DX010 (sc), vehicle: saline with Tween-80
[7] = dose: 100.0 mg/kg/injection, schedule: Q01DX010 (sc), vehicle: saline with Tween-80
[8] = dose: 200.0 mg/kg/injection, schedule: Q01DX010 (sc), vehicle: saline with Tween-80
[9] = dose: 400.0 mg/kg/injection, schedule: Q01DX010 (sc), vehicle: saline with Tween-80
[10] = dose: 50.0 mg/kg/injection, schedule: Q01DX010 (sc), vehicle: Klucel (hydroxypropylcellulose) (HPC)
[11] = dose: 400.0 mg/kg/injection, schedule: Q01DX010 (sc), vehicle: Klucel (hydroxypropylcellulose) (HPC)
[12] = dose: 800.0 mg/kg/injection, schedule: Q01DX010 (sc), vehicle: Klucel (hydroxypropylcellulose) (HPC)
[13] = dose: 300.0 mg/kg/injection, schedule: Q04DX003 (sc), vehicle: saline with Tween-80
[14] = dose: 12.5 mg/kg/injection, schedule: Q01DX010 (sc), vehicle: saline
[15] = dose: 25.0 mg/kg/injection, schedule: Q01DX010 (sc), vehicle: saline
[16] = dose: 300.0 mg/kg/injection, schedule: Q04DX003 (sc), vehicle: Klucel (hydroxypropylcellulose) (HPC)
[17] = dose: 100.0 mg/kg/injection, schedule: Q04DX003 (sc), vehicle: suspension in saline
[18] = dose: 400.0 mg/kg/injection, schedule: Q04DX003 (sc), vehicle: suspension in saline
[19] = dose: 800.0 mg/kg/injection, schedule: Q04DX003 (sc), vehicle: suspension in saline

Compound: COc1ccc(Cl)[n+]([O-])n1
- T/C [1]: 83 % of control
- T/C [2]: 60 % of control
- T/C [3]: 80 % of control

Compound: N#C[C@H](OC1OC(COC2OC(CO)C(O)C(O)C2O)C(O)C(O)C1O)c1ccccc1 (stereo partly drawn)
- T/C (dose: 900.0 mg/kg/injection, schedule: Q04DX003 (sc), vehicle: suspension in saline): 82 % of control
- T/C (dose: 1800.0 mg/kg/injection, schedule: Q04DX003 (sc), vehicle: suspension in saline): 123 % of control

Compound: Cn1c2nc(=O)n(-c3ccccc3)c(=O)c-2nc2c1CCCC2
- T/C [4]: 71 % of control
- T/C [5]: 101 % of control

Compound: NC(=O)c1cn(C2OC(CO)C(O)C2O)c2ncnc(N)c12 (stereo not drawn)
- T/C (dose: 0.5 mg/kg/injection, schedule: Q01DX010 (sc), vehicle: saline): 74 % of control
- T/C (dose: 1.0 mg/kg/injection, schedule: Q01DX010 (sc), vehicle: saline): 88 % of control
- T/C (dose: 2.0 mg/kg/injection, schedule: Q01DX010 (sc), vehicle: saline): 27 % of control

Compound: CCCC(=O)Oc1ccc(/C=N/NC(N)=S)nc1
- T/C [6]: 91 % of control
- T/C [7]: 110 % of control
- T/C [8]: 40 % of control
- T/C [9]: 15 % of control

Compound: O=CC(O)C(O)C(O)C(O)C(=O)O.[NH-]C1CCCCC1[NH-].[Pt+2] (stereo not drawn)
- T/C (dose: 9.38 mg/kg/injection, schedule: Q04DX003 (sc), vehicle: suspension in saline): 39 % of control
- T/C (dose: 18.75 mg/kg/injection, schedule: Q04DX003 (sc), vehicle: suspension in saline): 46 % of control

Compound: O=C([CH-]C(=O)C(F)(F)F)c1ccccc1.O=C([CH-]C(=O)C(F)(F)F)c1ccccc1.O=C([CH-]C(=O)C(F)(F)F)c1ccccc1.O=C([CH-]C(=O)C(F)(F)F)c1ccccc1.[Eu+3].c1ccncc1
- T/C [10]: 85 % of control
- T/C (dose: 200.0 mg/kg/injection, schedule: Q01DX010 (sc), vehicle: Klucel (hydroxypropylcellulose) (HPC)): 49 % of control
- T/C [11]: 40 % of control
- T/C [12]: 65 % of control

Compound: CCOC(=O)C(C)(C)Oc1ccc(Cl)cc1
- T/C [13]: 73 % of control
- T/C (dose: 600.0 mg/kg/injection, schedule: Q04DX003 (sc), vehicle: saline with Tween-80): 97 % of control
- T/C (dose: 1200.0 mg/kg/injection, schedule: Q04DX003 (sc), vehicle: saline with Tween-80): 81 % of control

Compound: CCCCC1CCCCCCc2[nH]c(/C=C3\N=C(c4ccc[nH]4)C=C3OC)cc21 (stereo not drawn)
- T/C (dose: 4.0 mg/kg/injection, schedule: Q04DX003 (sc), vehicle: saline with Tween-80): 61 % of control
- T/C (dose: 8.0 mg/kg/injection, schedule: Q04DX003 (sc), vehicle: saline with Tween-80): 66 % of control
- T/C (dose: 16.0 mg/kg/injection, schedule: Q04DX003 (sc), vehicle: saline with Tween-80): 55 % of control

Compound: O=c1nc(Oc2ccccc2)nc2ncccn12
- T/C (dose: 25.0 mg/kg/injection, schedule: Q01DX010 (sc), vehicle: saline with Tween-80): 190 % of control
- T/C [6]: 165 % of control
- T/C [7]: 118 % of control
- T/C [8]: 210 % of control

Compound: Cc1ccccc1CN1C2=NCCN2C(=O)C2=C1CCN(S(=O)(=O)c1ccc(Cl)c(S(N)(=O)=O)c1)C2
- T/C (dose: 150.0 mg/kg/injection, schedule: Q04DX003 (sc), vehicle: saline): 77 % of control
- T/C (dose: 300.0 mg/kg/injection, schedule: Q04DX003 (sc), vehicle: saline): 96 % of control
- T/C (dose: 600.0 mg/kg/injection, schedule: Q04DX003 (sc), vehicle: saline): 155 % of control

Compound: O=C1c2c(O)ccc(O)c2C(=O)c2c(NCCNCCO)ccc(NCCNCCO)c21
- T/C (dose: 0.5 mg/kg/injection, schedule: Q01DX010 (sc), vehicle: acid diluted with saline): 57 % of control
- T/C (dose: 0.5 mg/kg/injection, schedule: Q01DX010 (sc), vehicle: water): 47 % of control
- T/C (dose: 1.0 mg/kg/injection, schedule: Q01DX010 (sc), vehicle: acid diluted with saline): 40 % of control
- T/C (dose: 1.0 mg/kg/injection, schedule: Q01DX010 (sc), vehicle: water): 34 % of control
- T/C (dose: 2.0 mg/kg/injection, schedule: Q01DX010 (sc), vehicle: acid diluted with saline): 52 % of control
- T/C (dose: 5.0 mg/kg/injection, schedule: Q04DX003 (sc), vehicle: water): 53 % of control
- T/C (dose: 10.0 mg/kg/injection, schedule: Q04DX003 (sc), vehicle: water): 26 % of control

Compound: COc1cc(NCc2ccc3nc(N)nc(N)c3c2C)cc(OC)c1OC
- T/C (dose: 1.25 mg/kg/injection, schedule: Q01DX010 (sc), vehicle: sodium bicarbonate): 76 % of control
- T/C (dose: 2.5 mg/kg/injection, schedule: Q01DX010 (sc), vehicle: sodium bicarbonate): 81 % of control
- T/C (dose: 5.0 mg/kg/injection, schedule: Q01DX010 (sc), vehicle: sodium bicarbonate): 36 % of control
- T/C (dose: 75.0 mg/kg/injection, schedule: Q04DX003 (sc), vehicle: water): 77 % of control
- T/C (dose: 150.0 mg/kg/injection, schedule: Q04DX003 (sc), vehicle: water): 67 % of control

Compound: CC1(C)N=C(N)N=C(N)N1c1ccc(F)c(C(F)(F)F)c1
- T/C (dose: 3.13 mg/kg/injection, schedule: Q01DX010 (sc), vehicle: saline): 76 % of control
- T/C [14]: 118 % of control and 122 % of control
- T/C [15]: 33 % of control

Compound: CC1(C)CC(=O)C(CSC(=O)c2ccccc2)C(=O)C1
- T/C (dose: 150.0 mg/kg/injection, schedule: Q04DX003 (sc), vehicle: Klucel (hydroxypropylcellulose) (HPC)): 102 % of control
- T/C [16]: 119 % of control

Compound: C1OC1C1CO1 (stereo not drawn)
- T/C [14]: 106 % of control
- T/C [15]: 80 % of control
- T/C (dose: 50.0 mg/kg/injection, schedule: Q01DX010 (sc), vehicle: saline): 66 % of control

Compound: N=C(N)SCc1c2ccccc2c(CSC(=N)N)c2ccccc12
- T/C [17]: 104 % of control
- T/C [18]: 93 % of control
- T/C [19]: 96 % of control

Compound: O=C1N(Cl)C(=O)C(c2ccc(Cl)cc2)(c2ccc(Cl)cc2)N1Cl
- T/C [6]: 98 % of control
- T/C [8]: 57 % of control
- T/C [9]: 118 % of control

Compound: C=CCOCC1CO1 (stereo not drawn)
- T/C (dose: 100.0 mg/kg/injection, schedule: Q01DX010 (sc), vehicle: saline): 87 % of control
- T/C (dose: 200.0 mg/kg/injection, schedule: Q01DX010 (sc), vehicle: saline): 104 % of control
- T/C (dose: 400.0 mg/kg/injection, schedule: Q01DX010 (sc), vehicle: saline): 69 % of control

Compound: OCCCN1CCCCC1CO (stereo not drawn)
- T/C (dose: 200.0 mg/kg/injection, schedule: Q04DX003 (sc), vehicle: saline): 98 % of control

Compound: CCCCCCCCCCCCCC#CC(=O)O
- T/C [4]: 89 % of control
- T/C [5]: 112 % of control
- T/C [13]: 105 % of control

Compound: C[n+]1cccc(NC(=O)c2ccc(NC(=O)C34CCC(C(=O)Nc5ccc(C(=O)Nc6ccc[n+](C)c6)cc5)(CC3)CC4)cc2)c1
- T/C (dose: 12.5 mg/kg/injection, schedule: Q04DX003 (sc), vehicle: saline with Tween-80): 103 % of control
- T/C (dose: 25.0 mg/kg/injection, schedule: Q04DX003 (sc), vehicle: saline with Tween-80): 76 % of control
- T/C (dose: 50.0 mg/kg/injection, schedule: Q04DX003 (sc), vehicle: saline with Tween-80): 53 % of control

Compound: N#CC(C#N)=C/C=C/c1cccc([N+](=O)[O-])c1
- T/C (dose: 25.0 mg/kg/injection, schedule: Q01DX010 (sc), vehicle: Klucel (hydroxypropylcellulose) (HPC)): 90 % of control
- T/C [10]: 83 % of control
- T/C (dose: 100.0 mg/kg/injection, schedule: Q01DX010 (sc), vehicle: Klucel (hydroxypropylcellulose) (HPC)): 69 % of control
- T/C [11]: 84 % of control
- T/C [12]: 42 % of control

Compound: Cc1ccc2nc(-c3ccc4nc(-c5ccc(N=Nc6ccc(-c7nc8ccc(-c9nc%10ccc(C)c(S(=O)(=O)O)c%10s9)cc8s7)cc6)cc5)sc4c3)sc2c1S(=O)(=O)O
- T/C [17]: 76 % of control
- T/C [18]: 64 % of control
- T/C [19]: 101 % of control

Compound: O=C1C=CC(n2cc(F)c(=O)[nH]c2=O)O1 (stereo not drawn)
- T/C [1]: 57 % of control
- T/C [2]: 60 % of control
- T/C [3]: 46 % of control

Compound: Cn1cc(C2NC(=O)c3ccccc3N2)c2ccccc21 (stereo not drawn)
- T/C [16]: 31 % of control
- T/C (dose: 600.0 mg/kg/injection, schedule: Q04DX003 (sc), vehicle: Klucel (hydroxypropylcellulose) (HPC)): 32 % of control
- T/C (dose: 1200.0 mg/kg/injection, schedule: Q04DX003 (sc), vehicle: Klucel (hydroxypropylcellulose) (HPC)): -36 % of control
